Eight molecules from patent US10112907B2, “Substituted indazoles for treating tendon and/or ligament injuries” (NOVARTIS AG, priority 2016, dated 2018) can be followed below.

The test system of assay [1] is Scleraxis (Scx) gene transcriptional activation in TT-D6 Scx-luciferase (ScxL) cell line. As to the kind of experiment: SCX-LUC in vitro assay (Scx-luciferase reporter). The format is cell-based. The conditions noted are these: Mus musculus.
In assay [2] the test system is collagen type I (Col1a2) gene expression in rat tail tendon fascicles. Put plainly: Ex vivo assay, Col1a2 mRNA in tendon fascicles (qPCR). The format is cell-based, Sprague Dawley rat. (In general: Real-time PCR tracks product formation cycle by cycle.)
Another assay concerns Rat tail fascicles. As to the kind of experiment: Ex vivo fascicle assay, mechanical testing. The note with it: 1 uM, 37° C., 4 weeks. Also noted: species or system rat (Sprague Dawley). From the text: Tail from skeletal mature rat (Sprague Dawley, female, 30-50 weeks old) was removed and kept on ice. Approximately 40 mm long segment was cut from the mid-portion of the tail. Rat tail fascicles (n=12) were carefully extracted from the segment. Fascicles were then randomly selected into three groups, fresh (n=4), vehicle (n=4) and (S)-(1-((4-(3-amino-4-methyl-1H-indazol-5-yl)-3-methylphenyl)sulfonyl)-4,4-difluoropyrrolidin-2-yl)methanol (Test Compound A hereinafter) treated (n=4). Biomechanical properties were measure immediately after extraction for the fresh group. […]
Samples were clamped for mechanical testing using a standard uniaxial material testing machine (ElectroPuls E3000, 50N load-cell, Instron, US) in a custom environmental testing chamber filled with PBS. Samples were preloaded to a position where crimp (macroscopic fascicle waviness) disappeared and initial length (L0) based on grip-to-grip distance was recorded. […] Sample lengths and corresponding forces were recorded to calculate engineering stress and strain. Young's moduli were calculated from the linear region of the stress-strain curves. […]

Another assay concerns tendon lesion. Put plainly: In vivo assay, endochondral ossification readout (Alcian blue) in tendon lesion. The conditions noted are these: 1 mg peri-tendinous injection 3 days post-surgery. On the procedure:
Animals were treated 3 days post-surgery with 1 mg of compound of example 32 in 10 ul of vehicle delivered by injection under the skin in the peri-tendinous region. Tendons were harvested 25 days post-treatment. Strong Alcian blue staining could be seen in the lesion in the vehicle treated group which is typical of endochondral tissue forming which further ossifies with time. […] Definiens Tissue Studio software was used for quantitative image analysis of the Alcian blue positive area. Serial step sections encompassing 2 mm of the lesion were used for quantification.

Assay [3] has as its system Tenomodulin (Tnmd) gene expression in rat tail tendon fascicles. Put plainly: Ex vivo assay, Tnmd mRNA in tendon fascicles (qPCR). In kind it is cell-based, Sprague Dawley rat.
Assay [4] relates to Scleraxis (Scx) gene expression in rat tail tendon fascicles. As to the kind of experiment: Ex vivo assay, Scx mRNA in tendon fascicles (qPCR). In kind it is cell-based, Sprague Dawley rat.
Assay [5] has as its target recombinant human Tyk2 (aa888-1187) (Homo sapiens (Human), UniProt P29597). Put plainly: Kinase selectivity panel, substrate peptide phosphorylation (Caliper). In kind it is biochemical. The note with it: 45 uM ATP.
Assay [6] addresses recombinant human Jak1 (aa 866-1154) (Homo sapiens (Human), UniProt P23458). Described as above. The format is biochemical.
For assay [7], the target named is recombinant human Jak3 (aa811-1124) (Homo sapiens (Human), UniProt P52333). The format is biochemical.
For assay [8], the target named is recombinant human Jak2 (aa808-1132) (Homo sapiens (Human), UniProt O60674). As to the kind of experiment: Kinase selectivity panel, substrate peptide phosphorylation (Caliper). The format is biochemical.
The mark [9] stands for this setting: 96 h, Table 3, four days, read-out: Scx-Luc (EC50 μM).
Setting [10] is: 96 h, Table 3, four days, read-out: Ex vivo Col1a2 (EC50 μM).
[11] abbreviates: 96 h, Table 3, four days, read-out: Ex vivo Tnmd (EC50 μM).
The mark [12] stands for this setting: 96 h, Table 3, four days, read-out: Ex vivo Scx (EC50 μM).
[13] abbreviates: read-out: Ex vivo Col1a2 (EC50 uM).
Setting [14] is: read-out: Ex vivo Tnmd (EC50 uM).
[15] abbreviates: read-out: Ex vivo SCX (EC50 uM).
[16] abbreviates: Table 1, read-out: Scx-Luc (EC50 uM).
The mark [17] stands for this setting: Table 1, read-out: Ex vivo Col1a2 (EC50 uM).
Where [18] appears, read: Table 1, read-out: Ex vivo Tnmd (EC50 uM).
The mark [19] stands for this setting: Table 1, read-out: Ex vivo SCX (EC50 uM).

Where two headings read alike, the source gives them in different places.

The term EC50 denotes the concentration giving half of the maximal effect. As usually defined, the IC50 is the point on the concentration scale where inhibition reaches its midpoint.

Sequence of recombinant human Tyk2 (aa888-1187) (P29597 888-1187): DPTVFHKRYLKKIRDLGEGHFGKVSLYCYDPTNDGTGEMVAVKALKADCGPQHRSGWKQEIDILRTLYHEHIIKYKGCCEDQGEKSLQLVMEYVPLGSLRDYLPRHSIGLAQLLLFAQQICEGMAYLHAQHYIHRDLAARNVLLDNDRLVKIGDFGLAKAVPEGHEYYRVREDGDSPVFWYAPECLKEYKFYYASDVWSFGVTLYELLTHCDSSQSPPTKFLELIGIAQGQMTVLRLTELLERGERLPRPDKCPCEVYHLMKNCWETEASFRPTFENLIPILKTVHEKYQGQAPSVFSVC
Sequence of recombinant human Jak3 (aa811-1124) (P52333 811-1124): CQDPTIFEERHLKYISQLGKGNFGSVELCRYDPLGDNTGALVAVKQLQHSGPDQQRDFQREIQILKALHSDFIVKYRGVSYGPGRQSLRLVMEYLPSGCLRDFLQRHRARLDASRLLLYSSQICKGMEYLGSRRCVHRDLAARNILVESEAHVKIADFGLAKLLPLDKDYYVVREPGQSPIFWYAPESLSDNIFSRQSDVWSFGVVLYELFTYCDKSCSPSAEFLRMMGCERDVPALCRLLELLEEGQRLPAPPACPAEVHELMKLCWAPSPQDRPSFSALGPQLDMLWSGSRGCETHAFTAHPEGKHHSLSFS
Sequence of recombinant human Jak1 (aa 866-1154) (P23458 866-1154): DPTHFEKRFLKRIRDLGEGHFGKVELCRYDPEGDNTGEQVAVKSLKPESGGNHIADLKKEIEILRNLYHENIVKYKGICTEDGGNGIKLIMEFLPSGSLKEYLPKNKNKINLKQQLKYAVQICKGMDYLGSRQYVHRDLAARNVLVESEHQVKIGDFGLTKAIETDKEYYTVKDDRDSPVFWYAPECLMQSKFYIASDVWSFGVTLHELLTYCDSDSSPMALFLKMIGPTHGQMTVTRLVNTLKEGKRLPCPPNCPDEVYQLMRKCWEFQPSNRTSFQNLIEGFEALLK

As to `Cc1cc(S(=O)(=O)N2CC(F)(F)C[C@H]2CO)ccc1-c1ccc2[nH]nc(N)c2c1C` [Example 32, (S)-(1-((4-(3-amino-4-methyl-1H-indazol-5-yl)-3-methylphenyl)sulfonyl)-4,4-difluoropyrrolidin-2-yl)methanol], the EC50 in assay [1] (setting [9]) is 0.518 µM; in assay [2] (setting [10]) it was 4.59 µM; in [3] (setting [11]), 6.1 µM; in [4] (setting [12]), 5.56 µM. The “tendon degeneration in unloaded condition (tendon structure, failure stress, Young's modulus)” value in the assay with Rat tail fascicles was “could prevent the degeneration”. For the same molecule, the “effect on improper healing (aberrant differentiation towards chondrogenic and osteogenic lineages)” value with tendon lesion (25 days post-treatment) is “able to counter some of the improper healing”. The “Endochondral ossification readout Alcian Blue positive (mm^2/section), Mean” value with tendon lesion (tendons harvested 25 days post-treatment) was 25.09 mm^2/section.

With `CCS(=O)(=O)N1CC(CC#N)(n2cc(-c3ncnc4[nH]ccc34)cn2)C1`, the IC50 in assay [5] came out at 0.03 µM.

In the case of `Cc1cc(Nc2nc(N[C@@H](C)c3ncc(F)cn3)ncc2Cl)n[nH]1` [reference compound], the IC50 in assay [6] (45 uM ATP) came to 0.0002 µM; in [5], 0.002 µM; in assay [7] (45 uM ATP) it was 0.06 µM; in assay [8] (45 uM ATP), 0.0007 µM. Moreover, the EC50 is 0.008 µM in assay [1] (read-out: Scx-Luc (EC50 uM)), 2.61 µM in [2] (setting [13]), 3.3 µM in [3] (setting [14]) and 3.37 µM in assay [4] (setting [15]).

As for `CS(=O)(=O)NCc1nc2cnc3[nH]ccc3c2n1[C@@H]1C[C@H]2CC[C@@H]1C2` [reference compound], the half-maximal inhibitory concentration (IC50) in [5] came to 0.14 µM; in assay [7] it was 0.95 µM; in assay [8] it was 0.19 µM. Also, the concentration for a half-maximal effect (EC50) in [1] (setting [16]) stood at 0.18 µM; in [2] (setting [17]) it was 3.76 µM; in [3] (setting [18]) it was 4.57 µM; in assay [4] (setting [19]), 3.22 µM.

In the case of `N#Cc1ccc(COc2ccc(-c3cccc4nc(NC(=O)C5CC5)nn34)cc2)cn1` [reference compound], the IC50 in assay [6] worked out at 0.001 µM; in assay [5] it was 0.11 µM; in [7] it was 0.38 µM; in assay [8], 0.03 µM. Moreover, the EC50 in assay [1] (setting [16]) was found to be 0.22 µM; in [2] (setting [17]) it was 0.9 µM; in [3] (setting [18]), 1.31 µM; in [4] (setting [19]) it was 5.77 µM.

For `CC[C@@](C)(Nc1ccnc(-c2c[nH]c3ncccc23)n1)C(=O)NCC(F)(F)F` [reference compound], the concentration for half-maximal inhibition (IC50) in assay [6] (45 uM ATP) was found to be 0.02 µM; in [8] it was 0.13 µM. The EC50 in assay [1] (read-out: Scx-Luc (EC50 uM)) turned out to be 0.03 µM; in assay [2] (setting [13]), 0.88 µM; in assay [3] (setting [14]) it was 1.77 µM; in assay [4] (setting [15]), 1.65 µM.

As to `COc1c(-c2ccc(S(=O)(=O)N[C@@H]3CCC[C@@H]3O)cc2C)ccc2[nH]nc(N)c12` [Example 73, 4-(3-amino-4-methoxy-1H-indazol-5-yl)-N-((1R,2S)-2-hydroxycyclopentyl)-3-methylbenzenesulfonamide], the concentration for a half-maximal effect (EC50) was found to be 0.632 µM in [1] (setting [9]), 3.77 µM in [2] (setting [10]), 6.51 µM in [3] (setting [11]) and 5.23 µM in assay [4] (setting [12]).

In the case of `N#CCNC(=O)c1ccc(-c2ccnc(Nc3ccc(N4CCOCC4)cc3)n2)cc1` [reference compound], the 50% effective concentration (EC50) in assay [1] (setting [16]) was determined as 0.12 µM; in assay [2] (setting [17]) it was 4.67 µM; in assay [3] (setting [18]) it was 3.27 µM; in [4] (setting [19]) it was 3.92 µM.
